The values that follow come from US9309224B2 (Deciphera Pharmaceuticals, LLC, priority 2013, dated 2016).

Bounds are passed on as bounds.

The test system of assay [1] is osteoclast precursors. Briefly: Osteoclast tartrate-resistant acid phosphatase assay. The class given is cell-based. To be noted: Osteoclast; 7-14 days, RANKL and M-CSF. Here is the method: Diluted compound was transferred to a 384-well black clear bottom plate. Two-thousand five hundred osteoclast precursors (Lonza, Walkersville, Md.) were added per well in growth media containing Receptor Activator of Nuclear Factor Kappa-beta ligand (RANKL) and M-CSF (R&D Systems, Minneapolis, Minn.). Plates were incubated for 7-14 days at 37 degrees Celsius, 5% CO2, and 95% humidity to allow differentiation of osteoclast precursors. […] Tartrate-resistant acid phosphatase activity in the supernatant samples was determined using an acid phosphatase assay kit (Sigma, St. Louis, Mo.). Absorbance was measured at 550 nm using a plate reader. Data was analyzed using Prism software (Graphpad, San Diego, Calif.) to calculate IC50 values.

Assay [2] has as its target T1, phospho-FMS in THP-1 cells (Homo sapiens, UniProt P07333).
T1 construct: endogenous in cells; host or cells: THP-1 (ATCC TIB-202)
Briefly: Phospho-FMS ELISA assay in THP-1 cells. The class given is cell-based. To be noted: 4 hours compound, M-CSF stimulated; read-out: pFMS inhibition in THP-1 cells. A general note: In an ELISA, binding on a coated surface is turned into a signal by an enzyme label.
Experimental: In a separate 96 well black clear bottom plate, one hundred and fifty thousand THP-1 cells were added per well in 100 μL in assay medium. Fifty microliters of diluted compound was then added to the cells. […] Lysates were prepared and used to perform the phospho-FMS ELISA as described by the manufacturer (catalog #DYC3268, R & D Systems, Minneapolis, Minn.). GraphPad Prism was used to calculate IC50 values obtained from data generated from the ELISA assay.

Assay [3] concerns the target T2, unphosphorylated PDGFRβ kinase (uPDGFRβ, Seq. ID No. 3) (Homo sapiens, UniProt P09619).
T2 construct: purchased DeCode
Briefly: Unphosphorylated PDGFRβ kinase assay (pyruvate kinase/lactate dehydrogenase coupled). The class given is biochemical. The settings on record: ATP 500 μM. The source says: Unphosyhorylated PDGFRβ (uPDGFRβkinase (Seq. ID No. 3) assay

Assay [4] deals with M-NFS-60 cells. Briefly: M-NFS-60 cell proliferation assay. Type of assay: cell-based. The settings on record: 67 h incubation, resazurin. On the technique in general: Resazurin is reduced to fluorescent resorufin, in cell work by metabolically active cells.
Experimental: M-NFS-60 Cell Proliferation Assay A serial dilution of test compound was dispensed into a 384-well black clear bottom plate (Corning, Corning, N.Y.). Two thousand five hundred cells were added per well in 50 μL complete growth medium. […] IC50 values were calculated from a series of percent inhibition values determined at a range of inhibitor concentrations using software routines as implemented in the GraphPad Prism software package.
The target in assay [5] is T3, unphosphorylated c-KIT kinase (uKIT, Seq. ID no. 2) (Homo sapiens, UniProt P10721).
T3 construct: uKit with N-terminal GST fusion used for
T3 sequence (P10721 with tags, fused parts or gaps): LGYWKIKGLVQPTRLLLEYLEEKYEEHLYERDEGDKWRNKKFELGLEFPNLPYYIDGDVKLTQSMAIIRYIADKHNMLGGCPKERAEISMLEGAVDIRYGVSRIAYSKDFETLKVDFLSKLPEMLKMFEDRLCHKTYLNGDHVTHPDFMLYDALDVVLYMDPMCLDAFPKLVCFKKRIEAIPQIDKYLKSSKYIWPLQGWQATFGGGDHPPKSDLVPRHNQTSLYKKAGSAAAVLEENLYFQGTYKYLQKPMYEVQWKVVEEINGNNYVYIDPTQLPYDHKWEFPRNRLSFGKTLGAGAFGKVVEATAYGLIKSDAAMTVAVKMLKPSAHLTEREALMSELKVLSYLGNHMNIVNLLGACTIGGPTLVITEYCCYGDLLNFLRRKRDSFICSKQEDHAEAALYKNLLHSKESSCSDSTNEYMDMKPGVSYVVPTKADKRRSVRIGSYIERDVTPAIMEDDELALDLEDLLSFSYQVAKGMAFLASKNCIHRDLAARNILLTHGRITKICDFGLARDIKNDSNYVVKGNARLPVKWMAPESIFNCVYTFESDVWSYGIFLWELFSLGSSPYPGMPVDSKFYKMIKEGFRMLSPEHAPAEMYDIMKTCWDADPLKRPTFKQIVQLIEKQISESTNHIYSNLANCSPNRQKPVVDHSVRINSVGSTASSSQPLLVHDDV
Briefly: uKit kinase assay (pyruvate kinase/lactate dehydrogenase coupled). Type of assay: biochemical. To be noted: ATP 2000 μM.
Experimental: In this assay, the oxidation of NADH (thus the decrease at A340 nm) was continuously monitored spectrophometrically. […] The inhibition reaction was started by mixing serial diluted test compound with the above reaction mixture. The absorption at 340 nm was monitored continuously for 4 hours at 30° C. on Synergy 2 plate reader (BioTech).

Assay [6] has as its target T4, unphosphorylated c-FMS kinase (uFMS, Seq. ID no. 1) (Homo sapiens, UniProt P07333).
T4 construct: purchased Millipore
T4 sequence (P07333 538-972): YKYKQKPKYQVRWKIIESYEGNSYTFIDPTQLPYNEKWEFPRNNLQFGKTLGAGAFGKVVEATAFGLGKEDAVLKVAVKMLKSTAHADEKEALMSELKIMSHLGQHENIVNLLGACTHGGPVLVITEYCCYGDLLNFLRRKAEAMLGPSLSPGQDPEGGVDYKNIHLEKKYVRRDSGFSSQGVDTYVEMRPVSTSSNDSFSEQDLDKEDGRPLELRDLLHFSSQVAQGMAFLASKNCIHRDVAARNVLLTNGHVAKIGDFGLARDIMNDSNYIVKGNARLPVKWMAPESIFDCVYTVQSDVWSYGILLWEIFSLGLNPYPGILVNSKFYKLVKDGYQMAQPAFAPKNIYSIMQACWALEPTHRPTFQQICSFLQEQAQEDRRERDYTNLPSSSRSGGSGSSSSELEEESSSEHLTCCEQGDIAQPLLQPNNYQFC
Put plainly: uFMS kinase assay (pyruvate kinase/lactate dehydrogenase coupled). Type of assay: biochemical. The settings on record: ATP 500 μM.

T1 sequence (P07333 20-972): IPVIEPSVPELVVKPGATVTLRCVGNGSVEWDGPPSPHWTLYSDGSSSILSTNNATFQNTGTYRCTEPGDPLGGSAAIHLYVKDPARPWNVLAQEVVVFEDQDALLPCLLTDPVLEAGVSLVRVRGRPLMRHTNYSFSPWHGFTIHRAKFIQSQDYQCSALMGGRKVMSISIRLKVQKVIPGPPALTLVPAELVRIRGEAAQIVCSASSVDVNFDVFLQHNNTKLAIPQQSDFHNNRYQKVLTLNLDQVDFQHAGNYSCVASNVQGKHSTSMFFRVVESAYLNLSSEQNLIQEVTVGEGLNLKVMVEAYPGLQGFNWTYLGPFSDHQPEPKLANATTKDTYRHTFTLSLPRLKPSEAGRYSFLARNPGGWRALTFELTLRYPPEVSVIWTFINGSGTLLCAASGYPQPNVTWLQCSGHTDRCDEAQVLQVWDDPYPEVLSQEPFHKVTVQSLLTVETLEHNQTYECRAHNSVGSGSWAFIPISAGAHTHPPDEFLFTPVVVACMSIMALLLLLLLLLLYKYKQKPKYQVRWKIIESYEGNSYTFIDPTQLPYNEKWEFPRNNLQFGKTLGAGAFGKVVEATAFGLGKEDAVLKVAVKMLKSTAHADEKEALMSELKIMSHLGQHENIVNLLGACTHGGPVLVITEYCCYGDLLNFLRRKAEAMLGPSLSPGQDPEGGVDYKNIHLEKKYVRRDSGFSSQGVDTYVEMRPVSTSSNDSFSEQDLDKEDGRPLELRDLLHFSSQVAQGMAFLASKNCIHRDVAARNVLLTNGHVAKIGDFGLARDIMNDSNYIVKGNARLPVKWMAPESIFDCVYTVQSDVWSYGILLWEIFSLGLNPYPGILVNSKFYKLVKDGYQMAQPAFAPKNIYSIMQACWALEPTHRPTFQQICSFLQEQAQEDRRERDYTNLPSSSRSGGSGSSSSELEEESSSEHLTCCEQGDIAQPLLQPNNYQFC
T2 sequence (P09619 557-1105): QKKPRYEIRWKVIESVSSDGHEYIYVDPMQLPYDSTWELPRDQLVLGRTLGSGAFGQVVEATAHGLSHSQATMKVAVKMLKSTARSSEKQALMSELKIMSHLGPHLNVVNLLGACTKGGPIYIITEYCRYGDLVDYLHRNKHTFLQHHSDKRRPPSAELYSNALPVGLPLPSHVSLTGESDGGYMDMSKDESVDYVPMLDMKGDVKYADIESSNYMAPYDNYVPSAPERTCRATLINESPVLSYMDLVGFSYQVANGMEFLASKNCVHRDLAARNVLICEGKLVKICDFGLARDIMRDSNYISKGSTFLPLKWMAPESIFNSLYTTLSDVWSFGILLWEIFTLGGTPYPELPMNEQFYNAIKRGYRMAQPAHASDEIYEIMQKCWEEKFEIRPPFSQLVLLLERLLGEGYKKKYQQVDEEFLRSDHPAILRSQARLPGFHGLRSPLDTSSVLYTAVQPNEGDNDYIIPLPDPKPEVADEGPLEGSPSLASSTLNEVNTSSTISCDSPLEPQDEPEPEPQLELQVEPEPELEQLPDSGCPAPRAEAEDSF

Turning to `CCC(=O)Nc1cc(Oc2ccc(NC(=O)NC(=O)C(C)(C)C)nc2)ccn1` [Example 24, N-((5-((2-propionamidopyridin-4-yl)oxy)pyridin-2-yl)carbamoyl)pivalamide], the IC50 in assay [1] is below 10 nM; in assay [2], below 10 nM; in assay [3] it was 100 to 1000 nM; in assay [4], 10 to 100 nM; in assay [5], 100 to 1000 nM; in assay [6], 10 to 100 nM.
In the case of `Cc1nc(NC(=O)NC(=O)C(C)(C)C)ccc1Oc1ccnc(NC(=O)N2CCOCC2)c1` [Example 63, N-(4-((2-methyl-6-(3-pivaloylureido)pyridin-3-yl)oxy)pyridin-2-yl)morpholine-4-carboxamide], the IC50 in assay [1] is below 10 nM; in assay [2], 10 to 100 nM; in assay [3] it was above 1000 nM; in assay [4] it was 10 to 100 nM; in assay [5] it was above 1000 nM; in assay [6], below 10 nM.
In the case of `COC1(C(=O)NC(=O)Nc2ccc(Oc3ccnc(NC(C)=O)c3)cn2)CC1` [Example 27, N-((5-((2-acetamidopyridin-4-yl)oxy)pyridin-2-yl)carbamoyl)-1-methoxycyclopropanecarboxamide], the IC50 was below 10 nM in assay [1]; 10 to 100 nM in assay [2]; 100 to 1000 nM in assay [3]; 10 to 100 nM in assay [4]; above 1000 nM in assay [5]; 10 to 100 nM in assay [6].
As to `CN1CCC(C(=O)Nc2cc(Oc3ccc(NC(=O)NC(=O)C4(C)CC4)nc3)ccn2)CC1` [Example 33, 1-methyl-N-(4-((6-(3-(1-methylcyclopropanecarbonyl)ureido)pyridin-3-yl)oxy)pyridin-2-yl)piperidine-4-carboxamide], the IC50 is 10 to 100 nM in assay [1]; 10 to 100 nM in assay [2]; 100 to 1000 nM in assay [3]; 100 to 1000 nM in assay [4]; above 1000 nM in assay [5]; 10 to 100 nM in assay [6].
Take `CC(C)C(=O)Nc1cc(Oc2ccc(NC(=O)NC(=O)C(C)(C)C)nc2)ccn1` [Example 17, N-((5-((2-isobutyramidopyridin-4-yl)oxy)pyridin-2-yl)carbamoyl)pivalamide]: the IC50 in assay [1] is 10 to 100 nM; in assay [2], 10 to 100 nM; in assay [3] it was 100 to 1000 nM; in assay [4] it was 10 to 100 nM; in assay [5], above 1000 nM; in assay [6], 10 to 100 nM.
As for `Cc1nc(NC(=O)NC(=O)C(C)(C)C)ccc1Oc1ccnc(NC(=O)N2CCCC2)c1` [Example 71, N-(4-((2-methyl-6-(3-pivaloylureido)pyridin-3-yl)oxy)pyridin-2-yl)pyrrolidine-1-carboxamide], the IC50 was below 10 nM in assay [1]; below 10 nM in assay [2]; 100 to 1000 nM in assay [3]; below 10 nM in assay [4]; above 1000 nM in assay [5]; below 10 nM in assay [6].
Regarding `CC(=O)Nc1cc(Oc2ccc(NC(=O)NC(=O)C3CCOCC3)nc2)ccn1` [Example 5, N-((5-((2-acetamidopyridin-4-yl)oxy)pyridin-2-yl)carbamoyl)tetrahydro-2H-pyran-4-carboxamide], the IC50 in assay [1] was below 10 nM; in assay [2], below 10 nM; in assay [3], 100 to 1000 nM; in assay [4] it was 10 to 100 nM; in assay [5], 100 to 1000 nM; in assay [6] it was 10 to 100 nM.
For `COC(C)(C)C(=O)NC(=O)Nc1cc(C)c(Oc2ccnc(NC(C)=O)c2)cn1` [Example 38, N-((5-((2-acetamidopyridin-4-yl)oxy)-4-methylpyridin-2-yl)carbamoyl)-2-methoxy-2-methylpropanamide], the IC50 in assay [1] is 10 to 100 nM; in assay [2] it was below 10 nM; in assay [3] it was 10 to 100 nM; in assay [4], below 10 nM; in assay [5] it was 100 to 1000 nM; in assay [6] it was below 10 nM.
Regarding `CNC(=O)Nc1cc(Oc2ccc(NC(=O)NC(=O)C(C)(C)C)nc2)ccn1` [Example 79, N-((5-((2-(3-methylureido)pyridin-4-yl)oxy)pyridin-2-yl)carbamoyl)pivalamide], the IC50 in assay [1] is 10 to 100 nM; in assay [2], 10 to 100 nM; in assay [3] it was 100 to 1000 nM; in assay [4], 100 to 1000 nM; in assay [5], above 1000 nM; in assay [6], below 10 nM.
As to `CN1CCN(C2CCN(C(=O)Nc3cc(Oc4ccc(NC(=O)NC(=O)C(C)(C)C)nc4)ccn3)CC2)CC1` [Example 81, 4-(4-methylpiperazin-1-yl)-N-(4-((6-(3-pivaloylureido)pyridin-3-yl)oxy)pyridin-2-yl)piperidine-1-carboxamide], the IC50 in assay [1] was below 10 nM; in assay [2] it was below 10 nM; in assay [3] it was 100 to 1000 nM; in assay [4], 10 to 100 nM; in assay [5], above 1000 nM; in assay [6], below 10 nM.
For the compound `CC(=O)Nc1cc(Oc2ccc(NC(=O)NC(=O)C3CCOCC3)nc2C)ccn1` [Example 7, N-((5-((2-acetamidopyridin-4-yl)oxy)-6-methylpyridin-2-yl)carbamoyl)tetrahydro-2H-pyran-4-carboxamide], the IC50 in assay [1] was 10 to 100 nM; in assay [2] it was below 10 nM; in assay [3] it was 100 to 1000 nM; in assay [4], 10 to 100 nM; in assay [5] it was above 1000 nM; in assay [6] it was 10 to 100 nM.
On to `CC(C)(C)C(=O)NC(=O)Nc1ccc(Oc2ccnc(NC(=O)N3CCOCC3)c2)cn1` [Example 46, N-(4-((6-(3-pivaloylureido)pyridin-3-yl)oxy)pyridin-2-yl)morpholine-4-carboxamide], for which the IC50 in assay [1] is below 10 nM; in assay [2], below 10 nM; in assay [3] it was 100 to 1000 nM; in assay [4], below 10 nM; in assay [5], 100 to 1000 nM; in assay [6], below 10 nM.
For `COCCNC(=O)Nc1cc(Oc2ccc(NC(=O)NC(=O)C(C)(C)C)nc2)ccn1` [Example 82, N-((5-((2-(3-(2-methoxyethyl)ureido)pyridin-4-yl)oxy)pyridin-2-yl)carbamoyl)pivalamide], the IC50 in assay [1] is 10 to 100 nM; in assay [2], below 10 nM; in assay [3] it was above 1000 nM; in assay [4] it was 100 to 1000 nM; in assay [5] it was above 1000 nM; in assay [6], 10 to 100 nM.
`COC1(C(=O)NC(=O)Nc2ccc(Oc3ccnc(NC(=O)C4CC4)c3)cn2)CC1` [Example 41, N-((5-((2-(cyclopropanecarboxamido)pyridin-4-yl)oxy)pyridin-2-yl)carbamoyl)-1-methoxycyclopropanecarboxamide]: the IC50 in assay [1] is below 10 nM; in assay [2], 10 to 100 nM; in assay [3], 10 to 100 nM; in assay [4], 10 to 100 nM; in assay [5] it was 100 to 1000 nM; in assay [6] it was below 10 nM.
Turning to `CN(C)C1CCN(C(=O)Nc2cc(Oc3ccc(NC(=O)NC(=O)C(C)(C)C)nc3)ccn2)CC1` [Example 76, 4-(dimethylamino)-N-(4-((6-(3-pivaloylureido)pyridin-3-yl)oxy)pyridin-2-yl)piperidine-1-carboxamide], the IC50 was below 10 nM in assay [1]; below 10 nM in assay [2]; 100 to 1000 nM in assay [3]; 10 to 100 nM in assay [4]; above 1000 nM in assay [5]; below 10 nM in assay [6].
With `CN(C)C(=O)Nc1cc(Oc2ccc(NC(=O)NC(=O)C3(C)CCOCC3)nc2)ccn1` [Example 65, N-((5-((2-(3,3-dimethylureido)pyridin-4-yl)oxy)pyridin-2-yl)carbamoyl)-4-methyltetrahydro-2H-pyran-4-carboxamide], the IC50 in assay [1] is below 10 nM; in assay [2], 10 to 100 nM; in assay [3], 100 to 1000 nM; in assay [4], 10 to 100 nM; in assay [5], 100 to 1000 nM; in assay [6], below 10 nM.
As to `Cc1nc(NC(=O)NC(=O)C(C)(C)C)ccc1Oc1ccnc(NC(=O)N2CCN(C)CC2)c1` [Example 69, 4-methyl-N-(4-((2-methyl-6-(3-pivaloylureido)pyridin-3-yl)oxy)pyridin-2-yl)piperazine-1-carboxamide], the IC50 in assay [1] is below 10 nM; in assay [2], below 10 nM; in assay [3], above 1000 nM; in assay [4], below 10 nM; in assay [5], above 1000 nM; in assay [6] it was below 10 nM.
